Assay results: ChEMBL document CHEMBL1123932, “Berbanes: a new class of selective alpha 2-adrenoceptor antagonists” (J Med Chem, 1987)

What was measured:
[1] = target: Adrenergic receptor alpha-2 (Cavia porcellus); test: Antagonistic activity against adrenergic alpha-2 receptor in longitudinal muscle strip of the guinea pig ileum using l-norepinephrine as agonist
[2] = target: T1, Adrenergic receptor alpha-2 (Rattus norvegicus, UniProt P22086+P19328+P22909); test: Antagonistic activity against presynaptic alpha-2 adrenergic receptor in isolated rat vas deferens using xylazine as agonist; assay type: functional, tissue-based
T1 sequence (P22086 whole entry): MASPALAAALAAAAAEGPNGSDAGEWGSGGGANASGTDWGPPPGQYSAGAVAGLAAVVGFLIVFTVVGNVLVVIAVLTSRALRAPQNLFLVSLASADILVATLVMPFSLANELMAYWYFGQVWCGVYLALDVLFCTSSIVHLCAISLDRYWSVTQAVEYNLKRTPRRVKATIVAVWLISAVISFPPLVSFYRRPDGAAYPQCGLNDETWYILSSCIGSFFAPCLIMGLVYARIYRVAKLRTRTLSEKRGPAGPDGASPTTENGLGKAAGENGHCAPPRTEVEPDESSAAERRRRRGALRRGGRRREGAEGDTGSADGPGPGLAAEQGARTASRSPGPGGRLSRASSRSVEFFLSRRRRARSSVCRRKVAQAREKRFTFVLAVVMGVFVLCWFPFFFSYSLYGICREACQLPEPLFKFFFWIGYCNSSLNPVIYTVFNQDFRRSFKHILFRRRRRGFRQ
T1 sequence (P19328 whole entry): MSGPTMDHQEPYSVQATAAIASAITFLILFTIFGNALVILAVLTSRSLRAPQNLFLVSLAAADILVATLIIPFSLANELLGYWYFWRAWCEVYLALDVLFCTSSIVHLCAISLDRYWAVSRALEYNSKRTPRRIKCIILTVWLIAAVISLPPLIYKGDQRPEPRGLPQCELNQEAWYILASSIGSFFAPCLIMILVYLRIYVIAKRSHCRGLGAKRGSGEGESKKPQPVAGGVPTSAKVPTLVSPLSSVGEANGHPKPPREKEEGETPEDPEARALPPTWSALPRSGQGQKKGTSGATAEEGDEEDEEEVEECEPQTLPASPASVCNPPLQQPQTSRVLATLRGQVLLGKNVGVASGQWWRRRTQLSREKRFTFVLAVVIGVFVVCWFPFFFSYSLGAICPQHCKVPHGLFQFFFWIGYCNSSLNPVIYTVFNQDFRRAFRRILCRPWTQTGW
T1 sequence (P22909 whole entry): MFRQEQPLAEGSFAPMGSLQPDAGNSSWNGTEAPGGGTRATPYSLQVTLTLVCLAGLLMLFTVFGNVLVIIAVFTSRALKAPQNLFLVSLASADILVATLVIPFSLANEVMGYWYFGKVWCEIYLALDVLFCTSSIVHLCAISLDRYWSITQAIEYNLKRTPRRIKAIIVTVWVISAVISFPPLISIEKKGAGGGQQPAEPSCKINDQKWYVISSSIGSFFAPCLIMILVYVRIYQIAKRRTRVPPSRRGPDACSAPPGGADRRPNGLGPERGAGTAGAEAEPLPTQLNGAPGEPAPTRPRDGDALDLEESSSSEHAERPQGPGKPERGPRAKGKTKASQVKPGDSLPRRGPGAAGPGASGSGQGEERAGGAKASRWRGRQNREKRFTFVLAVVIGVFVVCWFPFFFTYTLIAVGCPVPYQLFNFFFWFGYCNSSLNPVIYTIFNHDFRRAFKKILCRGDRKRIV

[3] = target: T2, Adrenergic receptor alpha-1 (Rattus norvegicus, UniProt P15823+P23944+P43140); test: Antagonistic activity against postsynaptic Alpha-1 adrenergic receptor in isolated rat vas deferens using (-)-phenylephrine as agonist; assay type: functional, tissue-based
T2 sequence (P15823 whole entry): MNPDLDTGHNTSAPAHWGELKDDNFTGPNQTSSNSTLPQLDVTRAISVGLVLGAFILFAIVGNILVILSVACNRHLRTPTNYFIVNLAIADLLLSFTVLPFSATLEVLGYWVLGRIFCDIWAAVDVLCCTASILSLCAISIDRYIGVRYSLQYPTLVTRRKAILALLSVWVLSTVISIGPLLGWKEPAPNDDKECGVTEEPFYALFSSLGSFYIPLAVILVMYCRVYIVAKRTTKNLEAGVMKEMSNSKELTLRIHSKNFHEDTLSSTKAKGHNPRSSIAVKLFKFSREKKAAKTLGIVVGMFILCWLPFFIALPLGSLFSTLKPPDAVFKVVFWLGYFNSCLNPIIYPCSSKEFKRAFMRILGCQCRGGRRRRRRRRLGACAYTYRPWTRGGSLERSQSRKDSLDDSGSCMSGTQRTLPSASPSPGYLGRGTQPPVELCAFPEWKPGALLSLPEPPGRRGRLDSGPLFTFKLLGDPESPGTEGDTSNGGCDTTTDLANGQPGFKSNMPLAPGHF
T2 sequence (P23944 whole entry): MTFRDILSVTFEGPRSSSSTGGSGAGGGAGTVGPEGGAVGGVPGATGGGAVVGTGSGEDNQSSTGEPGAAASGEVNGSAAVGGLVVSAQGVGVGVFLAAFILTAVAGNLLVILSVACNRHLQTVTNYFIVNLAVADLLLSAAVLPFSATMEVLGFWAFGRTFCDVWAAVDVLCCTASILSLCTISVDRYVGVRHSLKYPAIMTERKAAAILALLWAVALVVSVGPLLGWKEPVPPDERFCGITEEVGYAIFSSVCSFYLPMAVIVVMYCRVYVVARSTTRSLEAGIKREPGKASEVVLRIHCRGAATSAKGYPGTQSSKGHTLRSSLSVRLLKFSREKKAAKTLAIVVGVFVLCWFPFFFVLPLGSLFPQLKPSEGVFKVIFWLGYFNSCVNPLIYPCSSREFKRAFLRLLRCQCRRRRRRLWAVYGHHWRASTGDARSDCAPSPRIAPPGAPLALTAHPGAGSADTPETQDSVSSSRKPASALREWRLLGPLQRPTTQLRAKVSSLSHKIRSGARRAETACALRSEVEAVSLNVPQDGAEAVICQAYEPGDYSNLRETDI
T2 sequence (P43140 whole entry): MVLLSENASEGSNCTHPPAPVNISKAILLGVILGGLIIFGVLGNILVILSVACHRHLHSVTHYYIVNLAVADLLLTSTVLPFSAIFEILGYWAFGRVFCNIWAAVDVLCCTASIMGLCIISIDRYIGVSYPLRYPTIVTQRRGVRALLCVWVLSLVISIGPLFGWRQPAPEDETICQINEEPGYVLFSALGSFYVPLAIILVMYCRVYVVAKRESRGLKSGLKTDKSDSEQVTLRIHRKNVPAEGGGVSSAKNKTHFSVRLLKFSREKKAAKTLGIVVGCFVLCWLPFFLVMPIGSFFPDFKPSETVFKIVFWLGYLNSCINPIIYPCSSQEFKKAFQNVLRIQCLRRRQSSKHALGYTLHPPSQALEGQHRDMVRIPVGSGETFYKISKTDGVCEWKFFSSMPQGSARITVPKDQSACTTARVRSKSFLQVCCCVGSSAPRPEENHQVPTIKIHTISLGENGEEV

| pA2 [1] | pA2 [2] | pA2 [3] | Compound |
| --- | --- | --- | --- |
|  |  | 5.98 | COC(=O)[C@H]1C[C@H]2CN3CCc4cc5c(cc4[C@@H]3C[C@@H]2C[C@@H]1O)OCO5 |
| 8.21 | 7.3 | 4.55 | CC(=O)O[C@@H]1CC[C@@H]2CN3CCc4cc5c(cc4[C@@H]3C[C@@H]2C1)OCO5 |
|  |  | < 4 | OC[C@@H]1C[C@@H]2CN3CCc4cc5c(cc4[C@@H]3C[C@@H]2C[C@@H]1O)OCO5 |
|  |  | 4.8 | COC(=O)[C@@H]1C[C@@H]2CN3CCc4cc5c(cc4[C@@H]3C[C@@H]2C[C@@H]1O)OCO5 |
| 6.67 | 6.1 | < 4 | N#C[C@@H]1C[C@@H]2CN3CCc4cc5c(cc4[C@@H]3C[C@@H]2C[C@@H]1O)OCO5 |

Continued, compound first:

| Compound | pA2 [1] | pA2 [2] | pA2 [3] |
| --- | --- | --- | --- |
| COc1cc2c(cc1OC)[C@@H]1C[C@@H]3C[C@H](OC(C)=O)CC[C@@H]3CN1CC2 | 6.19 | 6.61 | 4.54 |
| CCOc1cc2c(cc1OCC)[C@@H]1C[C@@H]3C[C@H](O)CCC3CN1CC2 (stereo partly specified) |  | 6.41 | < 4 |
| COc1cc2c(cc1OC)[C@@H]1C[C@@H]3C[C@H](O)CC[C@@H]3CN1CC2 | < 4 | 6.31 | < 4 |
| OC[C@@H]1[C@H]2C[C@H]3c4cc5c(cc4CCN3C[C@@H]2CC[C@H]1O)OCO5 |  |  | 5.25 |
| CCOC(=O)[C@H]1[C@H]2C[C@H]3c4cc5c(cc4CCN3C[C@H]2CC[C@H]1O)OCO5 |  |  | 5.51 |
| Oc1cc2c(cc1O)[C@@H]1C[C@@H]3C[C@H](O)CC[C@@H]3CN1CC2 |  | 5.74 | < 4 |
